Source: US20140031388A1, “AKT INACTIVATION BY TOCOPHERYL DERIVATIVES” (priority 2012, published 2014)

What was measured:
LNCaP cells = test: MTT viability assay, LNCaP; assay type: cell-based; settings: Homo sapiens, 1% FBS-containing or serum-free RPMI 1640 medium for 24 h
Procedure: (§1) The prostate cancer cell lines, LNCaP and PC-3, were purchased from American Type Culture Collection (Manassas, Va.) and maintained in RPMI 1640 medium containing 10% heat-inactivated fetal bovine serum at 37° C. in a humidified incubator containing 5% CO2. The LNCaP-abl cells were a generous gift from Dr. Qianben Wang (The Ohio State University). Normal prostate epithelial cells were purchased from Lonza (Walkersville, Md.) and were cultured in the vendor-recommended defined prostate epithelial cell growth medium. For experiments, LNCaP cells were plated on poly-D-lysine-coated culture flasks at a density of 12,000 cells per cm^2 surface area for 24 hours, followed by treatment with test agents in serum-free RPMI 1640 medium. The α- and γ-tocopherols were purchased from Sigma-Aldrich (St. Louis, Mo.). The tocopherol derivatives, α- and γ-VE5, were synthesized by the inventors.
LNCaP cells were plated into poly-D-lysine-coated 96-well plates and PC-3 and LNCaP-abl cells into uncoated plates at the density of 5,000 cells per well in the presence of 10% FBS. Normal prostate epithelial cells were plated into uncoated plates at a density of 8,000 cells per well. […] After 24 hours of treatment, cells were incubated with MTT [3-(4,5-dimethylthiazol-2-yl)-2,5-diphenyl-2H-tetrazolium bromide] (TCI America; 0.5 mg/ml, final concentration) for an additional 2 hours. The medium was then removed from each well and replaced with DMSO to dissolve the reduced MTT dye for subsequent colorimetric measurement of absorbance at 595 nm. Cell viabilities are calculated as percentages of that in the corresponding vehicle-treated control group.

LNCaP and PC-3 cells = test: MTT viability assay, one value stated for both prostate cancer lines; assay type: cell-based; settings: for IC50: Homo sapiens, MTT, serum-free medium, one value for LNCaP and PC-3, read-out: IC50, antiproliferative effect / viability; for potency relative to parent tocopherol: Ser-473-Akt dephosphorylation and viability of prostate cancer cells
Procedure: as §1
LNCaP cells were plated into poly-D-lysine-coated 96-well plates and PC-3 and LNCaP-abl cells into uncoated plates at the density of 5,000 cells per well in the presence of 10% FBS. Normal prostate epithelial cells were plated into uncoated plates at a density of 8,000 cells per well. Exposure to test agents in serum-free medium was initiated 24 hours later. After 24 hours of treatment, cells were incubated with MTT [3-(4,5-dimethylthiazol-2-yl)-2,5-diphenyl-2H-tetrazolium bromide] (TCI America; 0.5 mg/ml, final concentration) for an additional 2 hours. The medium was then removed from each well and replaced with DMSO to dissolve the reduced MTT dye for subsequent colorimetric measurement of absorbance at 595 nm. Cell viabilities are calculated as percentages of that in the corresponding vehicle-treated control group.

Akt1 Y38G PH domain = molecular target: T1, Akt1 Y38G PH domain (Homo sapiens, UniProt P31749, Y38G); test: Surface plasmon resonance binding, Akt-Y38G PH domain mutant; settings: SPR, P < 0.05 vs. Akt
T1 construct: made in house
T1 sequence (P31749 5-108 Y38G limits assumed): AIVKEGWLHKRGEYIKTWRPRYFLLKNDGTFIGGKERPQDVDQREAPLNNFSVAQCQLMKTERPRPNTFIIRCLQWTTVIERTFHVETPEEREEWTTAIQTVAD
Source text: The cDNA fragments corresponding to the putative PH domain sequences of PHLPP1 (+115 to +372), PDK1 (+1225 to +1671), Akt1 (+1 to +447) and ILK (+538 to +646) were PCR-amplified using the plasmids pcDNA-HA-PHLPP1, pWZL-Neo-Myr-FLAG-PDPK1, pcDNA-HA-PKB-T308D-S473D, and pCMV-SPORT-ILK (Addgene) as templates. The PCR products were then cloned into EcoRI/XhoI sites of the pGEX-4T1 expression vector (GE Healthcare Life Sciences) to generate four constructs (pGEX-4T1-PHLPP1, pGEX-4T1-PDPK1, pGEX-4T1-AKT1, pGEX-4T1-ILK) for the expression of GST-PH domain fusion proteins. The mutated Akt1 Y38G PH domain was generated from pGEX-4T1-AKT1 by site-directed mutagenesis using the QuikChange II XL Site-Directed Mutagenesis Kit (Agilent Technologies). The expression and purification of GST-PH domain fusion proteins were performed essentially as described previously. Thomas et al., Curr Biol 12, 1256 (2002). The purified PH domains were analyzed by SDS-PAGE using an overloaded gel with purities were estimated to be >95% using ImageJ software.
Binding experiments were performed using a Biacore T100 system (GE Healthcare, Piscataway, N.J.). The GST-PH domain fusion proteins were immobilized on a CM5 S Sensorchip using Biacore's Amine Coupling Kit to a level of 17,000 response units. […] Data were analyzed using Biacore T100 Evaluation Software.

[1] = system: Akt membrane localization in LNCaP cells; test: Immunocytochemistry, membrane localization of Akt; assay type: cell-based; settings: DMSO-treated cells 38.0±5.7%
Procedure: After 24 hours treatment, LNCaP cells were fixed in 4% formaldehyde for 20 min before permeabilization with 0.1% Triton X-100 in PBS at room temperature for 1 hour followed by incubation in 1% FBS (in PBS) for 1 hour. Cells were stained for endogenous PH domain-containing proteins (Akt, PHLPP, PDK-1, ILK, BTK) by incubation with specific antibodies (1:100), followed by incubation with the Alexa Fluor 555-conjugated goat anti-rabbit or Alexa Fluor 488-conjugated goat anti-mouse IgG (1:200) at room temperature for 2 hours. Both primary and secondary antibodies were diluted in incubation buffer containing 0.1% Triton X-100 and 0.2% bovine serum albumin in PBS. The cells were washed in PBS after each step and mounted using […] mounting medium supplemented with DAPI (Vector Laboratories Inc., Burlingame, Calif.). The slides were allowed to set for at least 4 hours before confocal images were acquired using a Zeiss LSM 510 inverted confocal laser scanning microscope operated with Zeiss LSM 510 software. Image analysis was performed using ImageJ (NIH) software.

| IC50 (LNCaP cells) | IC50 (LNCaP and PC-3 cells) | Kd (Akt1 Y38G PH domain) | IC50 (LNCaP cells; 24 h) | Structure (SMILES) | potency relative to parent tocopherol (LNCaP and PC-3 cells) | potency relative to parent tocopherol (LNCaP and PC-3 cells; listed as a-VE5) | cells with membrane localization of Akt [1] |
| --- | --- | --- | --- | --- | --- | --- | --- |
| 20 µM | 15 to 20 µM | 0.48 ± 0.13 µM | – | Cc1c(C)c2c(c(C)c1O)CC[C@@](C)(CCCC(C)C)O2 [α-VE5, (R)-2,5,7,8-tetramethyl-2-(4-methylpentyl)-chroman-6-ol] | 50 fold | 10 fold | 65.0±8.9% |
| – | 7 to 10 µM | 0.49 ± 0.02 µM | 12 µM | Cc1c(O)cc2c(c1C)O[C@](C)(CCCC(C)C)CC2 [γ-VE5, (R)-2,7,8-trimethyl-2-(4-methylpentyl)-chroman-6-ol] | – | – | 71.4±2.5% |
